# In PMC7939384, “In crystallo screening for proline analog inhibitors of the proline cycle enzyme PYCR1” (The Journal of Biological Chemistry, 2021):
# Test system: MCF10A hRAS^V12 breast cancer spheroids
# Experiment: 13C5-glutamine tracer analysis of de novo proline biosynthesis in spheroids
# Assay type: cell-based
# Details: 5 mM, 5th day of treatment, 13C5-glutamine incubation, vs untreated
# Text: We tested whether NFLP treatment decreases proline biosynthesis in breast cancer cells grown as spheroids. To do so we applied ^13C tracer analysis ([19]), which is a method that can inform about nutrient contribution to biosynthetic pathways, to MCF10A hRAS^V12 breast cancer spheroids grown in DMEM/F12 containing proline. Specifically, we measured the contribution of ^13C5-glutamine to proline, which enables us to conclude on changes in de novo proline biosynthesis.
# Figure 7 NFLP targets proline metabolism in breast cancer spheroids.A, abundance of proline M + 0 and M + 5 labeling in MCF10A hRAS^V12 spheroids upon ^13C5-glutamine incubation and treatment without (n = 3) or with NFLP (5 mM; n = 3). Analysis was performed at 5th day of treatment. B, relative abundance of intracellular proline levels in MCF10A hRAS^V12 spheroids upon treatment (5 days) without (n = 6), with THFA (n = 3) or with NFLP (n = 6). C, protein content in MCF10A hRAS^V12 spheroids treated for 5 days without (n = 6), with THFA (n = 3) or with NFLP (n = 6). Bar graphs show mean ± S.D. from biological independent samples and P-values were obtained with Mann-Whitney tests. […]
# THFA and NFLP were supplemented (pH neutralized with NaOH) at day zero to the media of MCF10A H-RAS^V12 cells at the concentration of 5 mM. Protein levels were detected with the use of a […] (Thermo Scientific). […]
smiles,measurement,value
"O=CN1CCC[C@H]1C(=O)O [NFLP, N-formyl L-proline]",13C-labeled (M + 5) fraction of proline,decreased
same,unlabeled (M + 0) fraction of proline,increased
